In patent US9156830B2, “Heterocyclic compounds” (SHIONOGI & CO., LTD., priority 2011, dated 2015):

Key:
[1] = Measurement of Body Temperature Increase; type: in vivo; conditions: Crl/SD rats, oral, 1 mg/mL in 0.5% methylcellulose at 10 mL/kg; rectal temperature 0.5, 1 and 2 hrs after administration; difference from vehicle group average
Protocol: Selection of rats (Crl/SD rats, 7 weeks, male) for this study is based on rectal body temperature measured during the morning of the day of dosing. In addition, animals selected for this study are acclimated to both the rectal measurement procedure and to being handled and dosed to minimize spontaneous, stress-induced, increases in body temperature. The study is conducted in the animal care laboratories where the room temperature and humidity are kept. The rats are free to move and food and water during the study. Each rat is numbered with color line on the tail, housed in each cage and permittted the normal range of movement. Immediately before each body temperature is measured, they transferred to a single cage at each measurement. To reduce stress which affected the body temperature, the rats are covered with towels at the measurement. The thermistor probe is then carefully inserted into the rectum of each rat and left in place until the value on the digital display had stabilized.
On the day before dosing, rectal body temperatures are measured at 9:00, 10:00, 11:00, 12:30, 13:30, 14:30 and 15:30 to familiarize the animals with the measurement procedure prior to administration of the test or control treatments. The rats are also dosed by oral gavage without vehicle at 12:30 to acclimate and familiarized the animals with the handling and dosing procedure.
On the day of dosing, only rats whose rectal body temperatures are within the range of 37.0° C. to 37.7° C. are selected for this study. Rectal body temperatures are measured at 9:00, 10:00 and 11:00. Rats whose rectal body temperatures are over 37.9° C. at 10:00, and are outside the range of 37.0° C. to 37.7° C. at 11:00 are excluded from the study. The selected rats are divided to several groups based on their rectal body temperatures at 11:00. Rectal body temperatures of the selected rats are measured again at 12:30, and any rats whose rectal body temperature is 38.0° C. or greater are excluded from the study.
Following the group assignment, test compounds or vehicle is administrated to the rats. Each test compound is dissolved in 0.5% methylcellulose and the final concentration of the compound is adjusted to 1 mg/mL. Test compound is orally administrated in a volume 10 mL/kg once. 10 mL/kg of vehicle (0.5% methylcellulose) is administered to the vehicle group. The rectal body temperatures are measured 0.5, 1 and 2 hrs after the administration. The study is conducted in the animal care laboratories where the room temperature and humidity are kept.
Body temperature increase (ΔTb) is calculated from the difference from an average of the vehicle group at each time point. The body temperature increases (ΔTb) of Compounds I-20, I-25, I-26, I-28, I-29, I-33, I-34, I-36, I-37, I-63 and I-64 were less than 0.3° C.

Human TRPV1 [2] = target: T1, Human TRPV1 (Homo sapiens (Human), UniProt Q8NER1); test: Capsaicin-Based Assay (Protocol 2), TRPV1/CHO cells; type: cell-based; conditions: capsaicin 100 nM final, Fluo-4, read-out: TRPV1 IC50 Potency Capsaicin-Based Assay IC50
Protocol: The TRPV1/CHO cell line was generated as described below. […] Subsequently, the cells were loaded by incubation in 0.1 mL of wash buffer containing Fluo-4 at 3 μM final concentration. After 1 hour, the cells were washed twice with 0.2 mL wash buffer and resuspended in 0.1 mL wash buffer. The plates were then transferred to a Fluorescence Imaging Plate Reader (Molecular Devices). Fluorescence intensity was monitored for 15 seconds to establish a baseline. […] The final concentration of the compound was adjusted to range from 100 μM to 1.5625 μM. […] Data were collected over the entire time course and analyzed using Excel and the curve-fitting formula GraphPad Prism.

Human TRPV1 [3] = target: T1, Human TRPV1; test: pH-Based Assay (Protocol 2), Ca2+ response in TRPV1/CHO cells; type: cell-based; conditions: pH 5.0-5.1 (H2SO4)
Protocol: The TRPV1/CHO cell line was generated as described below. The following assay was conducted to determine the concentration of sulfuric acid that would give rise to a pH that induces a […] response optimal to test compounds for their effect on TRPV1. […] For one half of a 96-well plate one agonist solution was used, for the other half the other agonist solution. The agonist solutions were obtained by diluting sulfuric acid (H2SO4, 1 M) with measuring buffer. The concentrations for the two agonist solutions were determined as described above in Section 2 of Protocol 2. The sulfuric acid concentrations between the two agonist solutions differed by 0.5 mM. […] The thereby-obtained solutions were further diluted in measuring buffer (1:100) as 10× stock serial dilutions with a DMSO concentration of 1%. 10 μL of a 10× stock was added into each well at step 3.3.(4) of Protocol 2. Thus, the final concentrations of antagonists ranged from 1000-0.977 nM containing 0.1% DMSO (FIG. 3B). […] (3) The cells were washed twice with 150 μL of measuring buffer (mentioned in 2.2.(3) of Protocol 2, no probenecid). The wells were subsequently refilled with 70 μL of measuring buffer. (4) Either 10 μL of measuring buffer or 10 μL of 10× stock serial dilution of test compound (described in 3.2. above) were applied to each well. Usually, only one test compound was tested per 96-well plate. The number of replicates per 96-well plate for a particular antagonist at a particular concentration was 7×2 since two different sulfuric acid concentrations were used per 96-well plate (N=7×2)(FIG. 3). Step (5) was the same as 2.2.(4) above. (6) Fura-2 fluorescent intensity was monitored as described in 2.2.(5) above. […] Steps (7) and (8) were as described in 2.2.(6) and 2.2.(7) above, respectively. […] FIG. 3) were measured one by one using a portable pH meter.

T1 sequence (Q8NER1 whole entry): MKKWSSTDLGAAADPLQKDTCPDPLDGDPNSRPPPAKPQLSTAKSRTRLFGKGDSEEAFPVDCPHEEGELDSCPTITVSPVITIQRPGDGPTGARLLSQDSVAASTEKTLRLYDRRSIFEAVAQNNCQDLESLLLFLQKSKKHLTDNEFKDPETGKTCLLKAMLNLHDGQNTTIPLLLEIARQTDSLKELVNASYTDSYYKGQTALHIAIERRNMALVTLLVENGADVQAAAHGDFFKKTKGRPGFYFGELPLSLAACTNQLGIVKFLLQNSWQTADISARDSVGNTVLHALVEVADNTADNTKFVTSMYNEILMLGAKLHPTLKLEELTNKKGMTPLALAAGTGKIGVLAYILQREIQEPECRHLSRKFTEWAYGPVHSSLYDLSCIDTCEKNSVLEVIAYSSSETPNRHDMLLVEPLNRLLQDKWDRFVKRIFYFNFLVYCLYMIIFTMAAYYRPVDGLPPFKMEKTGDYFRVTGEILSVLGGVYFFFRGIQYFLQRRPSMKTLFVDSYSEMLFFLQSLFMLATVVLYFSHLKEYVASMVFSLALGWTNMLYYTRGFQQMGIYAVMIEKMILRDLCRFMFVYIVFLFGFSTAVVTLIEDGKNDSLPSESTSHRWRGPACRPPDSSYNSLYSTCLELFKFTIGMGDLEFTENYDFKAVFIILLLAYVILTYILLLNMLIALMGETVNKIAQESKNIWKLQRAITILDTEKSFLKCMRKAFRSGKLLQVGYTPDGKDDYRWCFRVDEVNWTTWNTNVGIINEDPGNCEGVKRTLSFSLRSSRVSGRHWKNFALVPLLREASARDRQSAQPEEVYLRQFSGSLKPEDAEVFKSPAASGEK

SMILES	Body temperature increase (ΔTb) [1]	also measured
O=C(Nc1ccc(C(F)(F)F)c(Cl)c1)N1CC=C(c2ncc(-c3noc(CO)n3)cc2Cl)CC1 [Compound I-25, N-(3-chloro-4-(trifluoromethyl)phenyl)-4-(3-chloro-5-(5-(hydroxymethyl)-1,2,4-oxadiazol-3-yl)pyridin-2-yl)-5,6-dihydropyridine-1(2H)-carboxamide]	less than 0.3 °C	
Cc1cc(NC(=O)N2CC=C(c3ncc(-c4nc(CO)no4)cc3F)CC2)ccc1C(F)(F)F [Compound I-64, 4-(3-fluoro-5-(3-(hydroxymethyl)-1,2,4-oxadiazol-5-yl)pyridin-2-yl)-N-(3-methyl-4-(trifluoromethyl)phenyl)-5,6-dihydropyridine-1(2H)-carboxamide]	less than 0.3 °C	
O=C(Nc1ccc(C(F)(F)F)cn1)N1CC=C(c2ncc(-c3noc(CO)n3)cc2Cl)CC1 [Compound I-26, 4-(3-chloro-5-(5-(hydroxymethyl)-1,2,4-oxadiazol-3-yl)pyridin-2-yl)-N-(5-(trifluoromethyl)pyridin-2-yl)-5,6-dihydropyridine-1(2H)-carboxamide]	less than 0.3 °C	
O=C(Nc1ccc(C(F)(F)F)c(Cl)c1)N1CC=C(c2ncc(-c3nnc([C@H](O)CO)o3)cc2Cl)CC1 [Compound I-20, (R) —N-(3-chloro-4-(trifluoromethyl)phenyl)-4-(3-chloro-5-(5-(1,2-dihydroxyethyl)-1,3,4-oxadiazol-2-yl)pyridin-2-yl)-5,6-dihydropyridine-1(2H)-carboxamide]	less than 0.3 °C	IC50 (Human TRPV1 [2]): 147 nM
O=C(Nc1ccc(C(F)(F)F)c(Cl)c1)N1CC=C(c2ncc(-c3nc(CO)no3)cc2Cl)CC1 [Compound I-36, N-(3-chloro-4-(trifluoromethyl)phenyl)-4-(3-chloro-5-(3-(hydroxymethyl)-1,2,4-oxadiazol-5-yl)pyridin-2-yl)-5,6-dihydropyridine-1(2H)-carboxamide]	less than 0.3 °C	IC50 (Human TRPV1 [3]; Fura-2, read-out: IC50 value by the pH-Based Assay): ≤ 100 nM
O=C(Nc1ccc(C(F)(F)F)c(Cl)c1)N1CC=C(c2ncc(-c3ocnc3CO)cc2Cl)CC1 [Compound I-28, N-(3-chloro-4-(trifluoromethyl)phenyl)-4-(3-chloro-5-(4-(hydroxymethyl)oxazol-5-yl)pyridin-2-yl)-5,6-dihydropyridine-1(2H)-carboxamide]	less than 0.3 °C	
O=C(Nc1nc2ccc(F)cc2s1)N1CC=C(c2ncc(-c3cc(CO)on3)cc2Cl)CC1 [Compound I-34, 4-(3-chloro-5-(5-(hydroxymethyl)isoxazol-3-yl)pyridin-2-yl)-N-(6-fluorobenzo[d]thiazol-2-yl)-5,6-dihydropyridine-1(2H)-carboxamide]	less than 0.3 °C	IC50 (Human TRPV1 [3]; Fura-2, read-out: TRPV1 IC50 Potency pH-Based Assay IC50): 33.6 nM
O=C(Nc1ccc(C(F)(F)F)c(Cl)c1)N1CC=C(c2ncc(-c3cc(CO)on3)cc2Cl)CC1 [Compound I-29, N-(3-chloro-4-(trifluoromethyl)phenyl)-4-(3-chloro-5-(5-(hydroxymethyl)isoxazol-3-yl)pyridin-2-yl)-5,6-dihydropyridine-1(2H)-carboxamide]	less than 0.3 °C	
O=C(Nc1ccc(C(F)(F)F)cn1)N1CC=C(c2ncc(-c3nc(CO)no3)cc2Cl)CC1 [Compound I-37, 4-(3-chloro-5-(3-(hydroxymethyl)-1,2,4-oxadiazol-5-yl)pyridin-2-yl)-N-(5-(trifluoromethyl)pyridin-2-yl)-5,6-dihydropyridine-1(2H)-carboxamide]	less than 0.3 °C	
O=C(Nc1ccc(C(F)(F)F)cn1)N1CC=C(c2ncc(-c3cc(CO)on3)cc2Cl)CC1 [Compound I-33, 4-(3-chloro-5-(5-(hydroxymethyl)isoxazol-3-yl)pyridin-2-yl)-N-(5-(trifluoromethyl)pyridin-2-yl)-5,6-dihydropyridine-1(2H)-carboxamide]	less than 0.3 °C	
